Reference: PubChem BioAssay (NCI)
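Protocol summary: plate cells (96-well), add compound at 5 concentrations, incubate 48 h, interpolate endpoints linearly. GI50 is the concentration that inhibits growth by half. TGI: concentration producing complete growth inhibition.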

Columns and labels:
Experiment in all cases: NCI anticancer screen, dose series, 48 h
A549 NSCLC = test system: A549 NSCLC
HL-60(TB) leukemia = test system: HL-60(TB) leukemia
HS 578T breast = test system: HS 578T breast
HT29 colon = test system: HT29 colon
K-562 leukemia = test system: K-562 leukemia
SK-MEL-2 melanoma = test system: SK-MEL-2 melanoma
SK-MEL-28 melanoma = test system: SK-MEL-28 melanoma
SNB-75 CNS = test system: SNB-75 CNS
T-47D breast = test system: T-47D breast
UACC-62 melanoma = test system: UACC-62 melanoma

| SMILES | GI50 (A549 NSCLC) [µM] | TGI (A549 NSCLC) [µM] | GI50 (HL-60(TB) leukemia) [µM] | TGI (HL-60(TB) leukemia) [µM] | GI50 (HS 578T breast) [µM] | TGI (HS 578T breast) [µM] | GI50 (HT29 colon) [µM] | TGI (HT29 colon) [µM] | GI50 (K-562 leukemia) [µM] | TGI (K-562 leukemia) [µM] | GI50 (SK-MEL-2 melanoma) [µM] | TGI (SK-MEL-2 melanoma) [µM] | GI50 (SK-MEL-28 melanoma) [µM] | TGI (SK-MEL-28 melanoma) [µM] | GI50 (SNB-75 CNS) [µM] | TGI (SNB-75 CNS) [µM] | GI50 (T-47D breast) [µM] | TGI (T-47D breast) [µM] | GI50 (UACC-62 melanoma) [µM] | TGI (UACC-62 melanoma) [µM] |
| --- | --- | --- | --- | --- | --- | --- | --- | --- | --- | --- | --- | --- | --- | --- | --- | --- | --- | --- | --- | --- |
| CCNC(=O)CCCCC(=O)c1c(C)[nH]c(/C=C2\N=C(c3ccc[nH]3)C=C2OC)c1C | 4.72 | 21.4 | 2.06 | 5.41 | 2.04 | 4.92 | 2.34 | 7.68 | 3.23 | > 100 | 3.14 | 7.44 | 1.66 | 3.09 | 3.26 | 24.4 | 2.68 | 6.43 | 6.11 | 19.3 |
| CCOC(=O)c1ccc2c(=O)n3c(C(=O)OCC)ccc3c(=O)n12 |  | > 100 |  | > 100 |  | > 100 |  | > 100 |  | > 100 |  | > 100 |  | > 100 |  | > 100 |  | > 100 |  | > 100 |
| CCC(c1nc2ccccc2c(=O)n1NC(=O)C(C)(C)C)C1(O)CCCCC1 (stereo unspecified) |  | > 100 |  | > 100 |  | > 100 |  | > 100 |  | > 100 |  | > 100 |  | > 100 |  | > 100 |  | > 100 |  | > 100 |
| COC(=O)C1(Cc2ccc3c(c2)CCC3)Cc2cc3c(cc2C1=O)CCC3 (stereo unspecified) |  | > 46.4 |  | 17.9 |  | > 46.4 |  | > 46.4 |  | > 46.4 |  | > 31.6 |  | > 46.4 |  | > 46.4 |  | > 46.4 |  | > 46.4 |
| O=C(O)[C@H]1NC[C@@H]2ON=C(Br)[C@@H]21 |  | > 100 |  | > 100 |  | > 100 |  | > 100 |  | > 100 |  | > 100 |  | > 100 |  | > 100 |  | > 100 |  | > 100 |
| COc1ccc(-c2cc(-c3ccc(Nc4ccnc5cc(C(F)(F)F)ccc45)cc3)[nH]c(=O)c2C#N)cc1 |  | > 100 |  | > 100 |  | 49.6 |  | > 80.4 |  | > 100 |  | > 100 |  | > 100 |  | 62.2 |  | > 100 |  | > 100 |
| O=c1[nH]c2cc([N+](=O)[O-])c(N(CCO)CCO)c([N+](=O)[O-])c2[nH]1 |  | > 100 |  | 80.9 |  | > 100 |  | > 100 |  | > 100 |  | 96.1 |  | 91.8 |  | 89.4 |  | 80.5 |  | 72.1 |
| CC1(C)C(C(=O)OC(C#N)c2cccc(OCC(=O)OCc3ccccc3)c2)C1(C)C (stereo unspecified) |  | > 100 |  | 22.9 |  | > 100 |  | > 100 |  | > 100 |  | > 100 |  | > 100 |  | > 100 |  | > 100 |  | > 100 |
| CC(=O)O[C@@H]1CC2[C@@H](CCC3Cc4nc5c(nc4C[C@@]32C)CC2CC[C@@H]3C(CC[C@@]4(C)C3CC[C@@H]4C(C)CCCC(C)C)[C@@]2(C)C5)C2C[C@@H]3OC4(CCC(C)CO4)C(C)[C@@H]3[C@]21C (stereo partly specified) |  | > 100 |  | > 100 |  | 96.4 |  | > 100 |  | > 100 |  |  |  | > 100 |  | 37.2 |  | > 100 |  | 50.1 |
| COC(=O)C1=C2Nc3ccccc3C23CCN2C(O)C4(CC5CC67CCOC6CCN6CCC8(c9cccc(OC)c9N(C4)C58O)C67)C4OCCC4(C1)C23 (stereo unspecified) |  | > 100 |  | > 100 |  | 77.5 |  | > 100 |  | > 100 |  | > 100 |  | > 100 |  | 68.3 |  | 55.7 |  | > 100 |
| Cc1cc2nc(NS(=O)(=O)c3cc(C)c(Cl)cc3S)[nH]c2cc1C |  | > 100 |  | > 100 |  | > 100 |  | > 100 |  | > 100 |  | > 100 |  | > 100 |  | > 100 |  | > 100 |  | > 100 |
| O=C(OCc1c(-c2ccccc2)nn(-c2ccccc2)c1COC(=O)Oc1ccccc1)Oc1ccccc1 |  | > 100 |  | > 100 |  | > 100 |  | > 100 |  | > 100 |  |  |  | > 100 |  | > 100 |  | > 100 |  | > 100 |
| Nc1nc(SCc2ccccc2[N+](=O)[O-])c2[nH]cnc2n1 |  | > 100 |  | > 86.1 |  | 24.7 |  | > 100 |  | > 100 |  | 90.3 |  | > 100 |  | > 70.4 |  | 74.1 |  | > 100 |
| COc1cc(OC)c(NC2=NCCO2)cc1Cl |  | > 100 |  | > 100 |  | > 100 |  | 47.8 |  | > 100 |  | 36.3 |  | > 100 |  | > 100 |  | > 100 |  | > 100 |
| O=S(=O)(Nc1nc(-c2cc(O)c(O)c(O)c2)cs1)c1ccc(Cl)cc1Cl |  | > 100 |  | > 100 |  | 53.6 |  | 51.2 |  | 48 |  | > 100 |  | > 100 |  | 77.6 |  | 41.1 |  | > 100 |
| Cn1c2cc(Cl)ccc2c2ccc3c(c21)C(=O)C=CC3=O |  | > 100 |  | 45.9 |  | > 100 |  | > 64.6 |  | 11.4 |  | > 100 |  | 63.5 |  | > 100 |  | 55.6 |  | > 31.6 |
| COC(=O)C(Cc1ccccc1)NC(=O)C(CCCN=C(N)N)NC(=O)OCc1ccccc1 (stereo unspecified) |  | > 100 |  | > 100 |  | > 100 |  | > 100 |  | > 100 |  |  |  | > 100 |  | > 100 |  | > 100 |  | > 100 |
| CC(C(O)c1ccccc1)[N+](=O)[O-] (stereo unspecified) |  | 40 |  | 44.6 |  | 98.7 |  | 71.8 |  | 59.1 |  | 39 |  | 41.5 |  | > 100 |  | 59.5 |  | 37.2 |
| C/C(=N\Nc1ncnc2ccccc12)c1ccccn1 |  | 32.6 |  | 10.7 |  | 47.5 |  | > 46.6 |  | > 4.64 |  | 33.9 |  | 45.6 |  | 39.7 |  | 20.7 |  | 3.22 |
| O=C(/C=C/c1ccsc1)c1ccc(Cl)s1 |  | > 100 |  | 57.2 |  | > 100 |  | > 100 |  |  |  | > 100 |  | > 100 |  | > 100 |  | > 100 |  | > 100 |
